According to US10624914B2, “Methods for determining the level of hyposialylation of Angptl4” (priority 2010, dated 2020):
“Also recorded” adds a separate entry of the source.

What was measured:
[1] = tested on: Angptl4; test: 2D gel electrophoresis, Western blot and densitometry of glomerular Angptl4 from ManNAc fed NPHS2-Angptl4 TG rats; type: in vivo, rat
Source text: The following techniques are described in prior publications: Taqman real time PCR (26), confocal imaging (7), in situ hybridization (27), promoter—reporter studies (7), immunogold EM (26), glomerular extraction and processing for Western blot (26), assessment of charge by PEI method (28); the foregoing references are hereby incorproated by reference for such teachings. For alcian blue staining, the pH of the staining solution was adjusted to 2.5 using acetic acid, and 0.1% nuclear fast red solution was used as a counterstain. Densitometry of glomerular basement membrane alcian blue stain (20 glomeruli/rat, 3 rats/group) was assessed using Image-Pro software (Media Cybernetics, Inc., Bethesda Md., USA). Densitometry of 2D gel Western blots was assessed using Gel-Pro Analyzer software (Media Cybernetics, Inc.). For in situ hybridization, the digoxigenin labeled probe for rat Angptl4 included bp 1 to 548 of the ORF.
To study the effect of manNAc on the sialylation of recombinant protein, the Angptl4-HEK293 stable or pcDNA3.1-HEK293 control stable cell lines were grown to confluence in 15 cm dishes, washed twice with warm PBS, then incubated with serum free DMEM without phenol red with or without 25 mM manNAc for 48 hours, after which the media was harvested, concentrated, protein assay conducted, and loaded on the 2D gels (200 μg/gel). […]
To make the study affordable, 7 homozygous male NPHS2-Angptl4 rats, age 3-3.5 months, with 15-25 fold higher albuminuria than wild type rats, were given ManNAc 1 mg/ml of tap water for 12 days (ManNAc phase), after which three were euthanized and the others returned to plain tap water for another 24 days (washout phase). […] Another seven male NPHS2-Angptl4 rats of similar age were assessed for baseline albuminuria levels, given normal tap water (control group), three euthanized on Day 12 and others followed up to day 36, after which albuminuria was reassessed and the animals euthanized. […]

[2] = tested on: Zucker Diabetic Fatty rats; test: Proteinuria in Zucker Diabetic Fatty rats treated with ManNAc; type: in vivo, rat; conditions: 13 week old male rats, ManNAc in tap water, 70 mg/Kg up to 20 days and 140 mg/Kg, vs plain tap water
Procedure: 13 week old male Zucker Diabetic Fatty rats were treated with ManNAc in tap water or with plain tap water (n=4 rats/group) at 70 and 140 mg/Kg.
These high pI hyposialylated forms of Angptl4 are sensitive to sialic acid precursor therapy, including ManNAc and ManNAc derivatives. […] In FIG. 8C, 13 week old male Zucker diabetic fatty rats were treated with ManNAc in tap water or with plain tap water (n=4 rats/group).

[3] = tested on: rats with puromycin aminonucleoside nephrosis (PAN model); test: Nephrotic syndrome parameters in puromycin aminonucleoside nephrosis (PAN model) rats treated with ManNAc; type: in vivo, rat; conditions: ManNAc 80 mg/Kg body weight in tap water from Day 4, Day 6
Procedure: FIGS. 7A-D show improvement in nephrotic syndrome parameters in ManNAc treated rats with puromycin aminonucleoside nephrosis (PAN model). In FIGS. 7A-7D, rats (n=5 rats/group) received a single intravenous injection of puromycin aminonucleoside (10 mg/100 gm), and were treated with ManNAC 80 mg/Kg body weight in tap water starting on Day 4, which coincides with the onset of proteinuria.
Rats (n=5 rats/group) received a single intravenous injection of puromycin aminonucleoside (10 mg/100 gm), and were treated with ManNAC 80 mg/Kg body weight in tap water starting on Day 4, which coincides with the onset of proteinuria. Data from Day 6 is shown.

[4] = tested on: Angptl4; test: Sialylation of recombinant Angptl4 in Angptl4-HEK293 stable cell line incubated with ManNAc; type: cell-based, rat; conditions: ManNAc 25 mM, 48 hours
Procedure: To study the effect of manNAc on the sialylation of recombinant protein, the Angptl4-HEK293 stable or pcDNA3.1-HEK293 control stable cell lines were grown to confluence in 15 cm dishes, washed twice with warm PBS, then incubated with serum free DMEM without phenol red with or without 25 mM manNAc for 48 hours, after which the media was harvested, concentrated, protein assay conducted, and loaded on the 2D gels (200 μg/gel). Western blots of glomeruli or recombinant protein were conducted using rabbit anti-Angptl4 (full length) antibody, preimmune rabbit serum and lectins SNA I-HRP and MAA-HRP (E-Y laboratories, San Mateo Calif. USA).

[5] = tested on: NPHS2-Angptl4 TG rats; test: Albuminuria in NPHS2-Angptl4 TG rats given ManNAc in tap water; type: in vivo, rat
Source text: Transgenic rats were generated by microinjection of the digested DNA constructs into fertilized Sprague Dawley eggs (conducted at University of Michigan), implantation into pseudopregnant host Sprague Dawley females, and the resulting offsprings were genotyped by routine PCR and TaqMan genomic DNA real time PCR strategy using construct specific and control genomic prolactin primer and probe combinations. Two founder lines for podocyte specific expression were generated. Data from NPHS2-Angptl4 TG rat line 740 (5 copies of the transgene) and were stable over 4 generations, are presented. Urinary total protein was assessed using the Bradford method (Biorad laboratories, Hercules Calif. USA), and albuminuria by ELISA (Bethyl laboratories, Montgomery Tex. USA).
To make the study affordable, 7 homozygous male NPHS2-Angptl4 rats, age 3-3.5 months, with 15-25 fold higher albuminuria than wild type rats, were given ManNAc 1 mg/ml of tap water for 12 days (ManNAc phase), after which three were euthanized and the others returned to plain tap water for another 24 days (washout phase). 18 hour urine collections were done twice (Day- 12 and Day 0) before the study to confirm rising albuminuria, and periodically during the study. Another seven male NPHS2-Angptl4 rats of similar age were assessed for baseline albuminuria levels, given normal tap water (control group), three euthanized on Day 12 and others followed up to day 36, after which albuminuria was reassessed and the animals euthanized. Daily water intake of each rat was charted. At each euthanasia time point, kidneys were removed after perfusion, glomeruli isolated and processed for 2D gel electrophoresis. Albuminuria on Day 0 for each rats was denoted as 100% and all subsequent albuminuria values were expressed relative to Day 0.

[6] = tested on: mouse Angptl4 promoter; test: Angptl4 promoter-reporter (SEAP) study in HEK 293 cells and GECs; type: cell-based; conditions: mifepristone 2×10^−5 M, glucocorticoid receptor antagonist
Procedure: We conducted 5′ RACE and primer extension analysis using mouse kidney mRNA and confirmed the same transcriptional start site in the kidney. Next, a 2 Kb fragment upstream of the transcriptional start site was clone using BAC clone RP23-27D5 as a template into pSEAP2 basic. A 2 Kb human Angptl4 promoter constructs were similarly generated using BAC clone RP11-886P16.
Incubation of HEK 293 cells and GECs transfected with Angptl4-pSEAP or empty vector promoter—reporter constructs for mouse Angptl4 with dexamethasone (10^−3 M) show a decline in SEAP activity at 48 hours. This decline in activity is mediated via the glucocorticoid receptor, since it is reversed by the receptor antagonist mifepristone (2×10^−5 M). Glucocorticoid sensitivity of the human promoter was also assessed (dexamethasone 10^−4 M). All transfection reactions were normalized using the pβgal vector (Clontech, Mountain View Calif. USA).

| Compound | percentage of neutral pI forms of Angptl4 (effect in words) ([1]; Day 12, ManNAc fed rats vs control TG rats) | sialylation of glomerular Angptl4 (reactivity with lectin SNA I) ([1]; Day 12, ManNAc treated rats) | neutral pI Angptl4 fraction (densitometry of Western blots, glomerular Angptl4) ([1]; rats euthanized on Day 12, ManNAc 1 mg/ml) [%] | proteinuria [2] | hypercholesterolemia (cholesterol) [3] | hypertriglyceridemia (triglycerides) [3] | plasma albumin levels [3] | proteinuria ([3]; vs control PAN rats) | reactivity of Angptl4 to sialic acid binding lectin MAA [4] | sialylation of Angptl4 [4] | electrophoretic migration (pI) of secreted Angptl4 ([4]; serum free, concentrated supernatant) | 18 hour albuminuria, nadir on Day 12 ([5]; 1 mg/ml ManNAc in tap water for 12 days, Day 0 = 100%) | albuminuria (effect in words) ([5]; ManNAc 1 mg/ml in tap water for 12 days) | reduction in albuminuria compared to baseline ([5]; ManNAc 1 mg/ml in tap water, over a 12 day period) | albuminuria after washout ([5]; after 12 days of washout following 12 days ManNAc 1 mg/ml) | reduction in albuminuria maintained ([5]; pilot studies, heavily albuminuric NPHS2-Angptl4 rats, ManNAc 8 mg/ml tap water) | albuminuria (effect in words) ([5]; pilot studies, heavily albuminuric rats, increasing doses of ManNAc (1 to 8 mg/ml)) | dexamethasone-induced decline in SEAP activity [6] |
| --- | --- | --- | --- | --- | --- | --- | --- | --- | --- | --- | --- | --- | --- | --- | --- | --- | --- | --- |
| CC(=O)N[C@@H]1C(O)O[C@H](CO)[C@@H](O)[C@@H]1O (stereo partly drawn) [ManNAc, N-acetylmannosamine] | significant increase | increased sialylation | 72.9 ± 1.4 | Significant reduction | significant reduction | significant reduction | significant improvement | significant reduction | increased reactivity | increased sialylation | shift of the protein towards neutral pI; also recorded: shift from high pI forms | 59.4±3.3 % of baseline | reduced albuminuria; also recorded: significant reduction | over 40% | returned towards baseline values | 20-30% | reduced albuminuria | – |
| CC#C[C@]1(O)CC[C@H]2[C@@H]3CCC4=CC(=O)CCC4=C3[C@@H](c3ccc(N(C)C)cc3)C[C@@]21C [mifepristone] | – | – | – | – | – | – | – | – | – | – | – | – | – | – | – | – | – | reversed |
